The subject of the assay is TEAD-dependent transcription. Kind of assay: TEAD-dependent transcription cell-based reporter assay (MSTO-211H+12XGTIIC luciferase). The arrangement: species or system human. To be noted: MSTO-211H+12XGTIIC reporter cells, 24 hours compound incubation, luminescence normalized to viability, read-out: MSTO-211H GMean IC50 (uM) Cell Assay Reporter Cell Variant: TEAD. The source says: The human mesothelioma cell line MSTO-211H was stably transfected with a pGL4.21 plasmid containing a synthetic promoter with 12 copies of the GTIIC TEAD response element that drives the expression of a luciferase reporter gene^1 using Lipofectamine transfection reagent (Thermo Fisher). Transfected cells were selected using puromycin and single cell clones expressing this construct (referred to as MSTO-211H+12XGTIIC) were generated by limiting dilution. MSTO-211H cells was characterized by genetic alterations in key components of the Hippo pathway^2, resulting in up-regulation of YAP/TEAD-mediated transcription. […] To evaluate TEAD inhibitors, the MSTO-211H+12XGTIIC cell line was seeded in a 96-well plate in 50 μL of culture media at 1×10^4 cells per well and incubated at 37° C. overnight. Serial dilutions of compounds (in total volume of 50 μL of culture media) were added to the cells and incubated at 37° C. for 24 hours. Each plate included cells treated with DMSO as high controls and cells treated with 20 μM of the reference compound K-975 (a known TEAD inhibitor)^3 as low controls. Cell viability was assayed by the addition of 25 μL of CellTiter-Fluor reagent (Promega) followed by a 30-minute incubation at 37° C. and quantification of the fluorescence signal (Ex400/Em505). Subsequently, luciferase expression was assayed by the addition of 25 μL of ONE-Glo reagent (Promega) followed by a 10-minute incubation at room temperature and quantification of the luminescence signal. The luminescence signal was normalized to the fluorescence signal to correct for any loss in cell viability over the 24-hour compound incubation period. The percentage of inhibition of normalized luminescence signal, indicative of compound-mediated inhibition of TEAD-dependent transcription, at individual compound concentrations relative to high and low controls was calculated. The data were analyzed by using nonlinear regression to generate IC50 values for individual compounds.

Where two headings read alike, the source gives them in different places.

For the compound `O=C(CCS(=O)(=O)C(F)(F)F)N1CCc2c(Cc3ccc(C(F)(F)F)cc3)cccc2C1` [O-0001, 1-(5-(4-(trifluoromethyl)benzyl)-3,4-dihydroisoquinolin-2(1H)-yl)-3-((trifluoromethyl)sulfonyl)propan-1-one], the IC50 (Homo sapiens) lay in the range of 0.001 to 10 µM.

Regarding `O=C(CCS(=O)(=O)C(F)(F)F)N1CCc2c(cccc2C(F)c2ccc(C(F)(F)F)cc2)C1` (stereo not drawn) [O-0002, 1-(5-(fluoro(4-(trifluoromethyl)phenyl)methyl)-3,4-dihydroisoquinolin-2(1H)-yl)-3-((trifluoromethyl)sulfonyl)propan-1-one], the IC50 (Homo sapiens) lay within 0.001 to 10 µM.

Take `O=C(CCS(=O)(=O)C(F)(F)F)N1CCc2c(cccc2C(O)c2ccc(C(F)(F)F)cc2)C1` (stereo not drawn) [O-0004, 1-(5-(hydroxy(4-(trifluoromethyl)phenyl)methyl)-3,4-dihydroisoquinolin-2(1H)-yl)-3-((trifluoromethyl)sulfonyl)propan-1-one]: the IC50 (Homo sapiens) lay in the range of 0.001 to 10 µM.

As to `O=C(c1ccc(C(F)(F)F)cc1)c1cccc2c1CCN(C(=O)CCS(=O)(=O)C(F)(F)F)C2` [O-0005, 1-(5-(4-(trifluoromethyl)benzoyl)-3,4-dihydroisoquinolin-2(1H)-yl)-3-((trifluoromethyl)sulfonyl)propan-1-one], the IC50 (Homo sapiens) was 0.001 to 10 µM.

Turning to `O=C(CCS(=O)(=O)C(F)(F)F)N1CCc2c(cccc2C(F)c2ccc(C(F)(F)F)nc2)C1` (stereo not drawn) [O-0008, 1-(5-(fluoro(6-(trifluoromethyl)pyridin-3-yl)methyl)-3,4-dihydroisoquinolin-2(1H)-yl)-3-((trifluoromethyl)sulfonyl)propan-1-one], the IC50 (Homo sapiens) is 0.001 to 10 µM.

In the case of `O=C(CCS(=O)(=O)C(F)(F)F)N1CCc2c(cccc2C(F)(F)c2ccc(C(F)(F)F)nc2)C1` [O-0009, 1-(5-(difluoro(6-(trifluoromethyl)pyridin-3-yl)methyl)-3,4-dihydroisoquinolin-2(1H)-yl)-3-((trifluoromethyl)sulfonyl)propan-1-one], the IC50 (Homo sapiens) lay in the range of 0.001 to 10 µM.

With `CS(=O)(=O)c1nccc(C(=O)N2CCc3c(cccc3C(=O)c3ccc(C(F)(F)F)cc3)C2)n1` [O-0033, (2-(methylsulfonyl)pyrimidin-4-yl)(5-(4-(trifluoromethyl)benzoyl)-3,4-dihydroisoquinolin-2(1H)-yl)methanone], where the note is “Homo sapiens”, the IC50 fell in the range of 0.001 to 10 µM.

As for `O=C(c1ccc(C(F)(F)F)cc1)c1cccc2c1CCN(C(=O)c1c[nH]c(C(F)(F)F)n1)C2` [O-0037, (2-(trifluoromethyl)-1H-imidazol-4-yl)(5-(4-(trifluoromethyl)benzoyl)-3,4-dihydroisoquinolin-2(1H)-yl)methanone], the IC50 (Homo sapiens) lay in the range of 0.001 to 10 µM.

As for `CS(=O)(=O)c1nc(C(=O)N2CCc3c(cccc3C(=O)c3ccc(C(F)(F)F)cc3)C2)c[nH]1` [O-0038, (2-(methylsulfonyl)-1H-imidazol-4-yl)(5-(4-(trifluoromethyl)benzoyl)-3,4-dihydroisoquinolin-2(1H)-yl)methanone], the IC50 (Homo sapiens) was 0.001 to 10 µM.

On to `O=C(c1ccc(C(F)(F)F)cc1)c1cccc2c1CCN(C(=O)c1cccc3[nH]c(C(F)(F)F)nc13)C2` [O-0046, (2-(trifluoromethyl)-1H-benzo[d]imidazol-4-yl)(5-(4-(trifluoromethyl)benzoyl)-3,4-dihydroisoquinolin-2(1H)-yl)methanone], for which, for the setting “Homo sapiens”, the 50% inhibitory concentration (IC50) is 0.001 to 10 µM.

As for `O=C(c1ccc(C(F)(F)F)cc1)c1cccc2c1CCN(C(=O)Cc1c[nH]cn1)C2` [O-0047, 2-(1H-imidazol-4-yl)-1-(5-(4-(trifluoromethyl)benzoyl)-3,4-dihydroisoquinolin-2(1H)-yl)ethan-1-one], the IC50 (Homo sapiens) was 0.001 to 10 µM.

With `O=C(c1ccc(C(F)(F)F)cc1)c1cccc2c1CCN(C(=O)CCc1cnc[nH]1)C2` [O-0048, 3-(1H-imidazol-5-yl)-1-(5-(4-(trifluoromethyl)benzoyl)-3,4-dihydroisoquinolin-2(1H)-yl)propan-1-one], for the setting “Homo sapiens”, the IC50 lay within 0.001 to 10 µM.

Regarding `CS(=O)(=O)c1nc(C(=O)N2CCc3c(cccc3C(F)c3ccc(C(F)(F)F)cc3)C2)c[nH]1` (stereo not drawn) [O-0054, (5-(fluoro(4-(trifluoromethyl)phenyl)methyl)-3,4-dihydroisoquinolin-2(1H)-yl)(2-(methylsulfonyl)-1H-imidazol-4-yl)methanone], the IC50 (Homo sapiens) was in the range of 0.001 to 10 µM.

On to `O=C(c1c[nH]c(C(F)(F)F)n1)N1CCc2c(cccc2C(F)c2ccc(C(F)(F)F)cc2)C1` (stereo not drawn) [O-0055, (5-(fluoro(4-(trifluoromethyl)phenyl)methyl)-3,4-dihydroisoquinolin-2(1H)-yl)(2-(trifluoromethyl)-1H-imidazol-4-yl)methanone], for which the IC50 (Homo sapiens) was 0.001 to 10 µM.

Consider `O=C(Cc1cscn1)N1CCc2c(cccc2C(F)c2ccc(C(F)(F)F)cc2)C1` (stereo not drawn) [O-0056, 1-(5-(fluoro(4-(trifluoromethyl)phenyl)methyl)-3,4-dihydroisoquinolin-2(1H)-yl)-2-(thiazol-4-yl)ethan-1-one], for which the IC50 (Homo sapiens) fell in the range of 0.001 to 10 µM.

Take `CCOC(c1ccc(C(F)(F)F)cc1)c1cccc2c1CCN(C(=O)CCS(C)(=O)=O)C2` (stereo not drawn) [O-0057, 1-(5-(ethoxy(4-(trifluoromethyl)phenyl)methyl)-3,4-dihydroisoquinolin-2(1H)-yl)-3-(methylsulfonyl)propan-1-one]: the IC50 (Homo sapiens) fell in the range of 0.001 to 10 µM.

`CS(=O)(=O)c1nccc(C(=O)N2CCc3ccc(C(=O)c4ccc(C(F)(F)F)cc4)cc3C2)n1` [O-0058, (2-(methylsulfonyl)pyrimidin-4-yl)(7-(4-(trifluoromethyl)benzoyl)-3,4-dihydroisoquinolin-2(1H)-yl)methanone]: the IC50 (Homo sapiens) was 0.001 to 10 µM.

For the compound `O=C(CCc1cnc[nH]1)N1CCc2ccc(C(F)(F)c3ccc(C(F)(F)F)nc3)cc2C1` [O-0059, 1-(7-(difluoro(6-(trifluoromethyl)pyridin-3-yl)methyl)-3,4-dihydroisoquinolin-2(1H)-yl)-3-(1H-imidazol-5-yl)propan-1-one], the IC50 (Homo sapiens) was 0.001 to 10 µM.

On to `O=C(Cc1cnc[nH]1)N1CCc2ccc(C(F)(F)c3ccc(C(F)(F)F)nc3)cc2C1` [O-0060, 1-(7-(difluoro(6-(trifluoromethyl)pyridin-3-yl)methyl)-3,4-dihydroisoquinolin-2(1H)-yl)-2-(1H-imidazol-5-yl)ethan-1-one], for which, for the setting “Homo sapiens”, the IC50 lay within 0.001 to 10 µM.

`CS(=O)(=O)c1nc(C(=O)N2CCc3ccc(C(F)(F)c4ccc(C(F)(F)F)nc4)cc3C2)c[nH]1` [O-0061, (7-(difluoro(6-(trifluoromethyl)pyridin-3-yl)methyl)-3,4-dihydroisoquinolin-2(1H)-yl)(2-(methylsulfonyl)-1H-imidazol-4-yl)methanone]: the IC50 (Homo sapiens) was in the range of 0.001 to 10 µM.

Turning to `O=C(CCS(=O)(=O)C(F)(F)F)N1CCc2ccc(C(F)(F)c3ccc(C(F)(F)F)nc3)cc2C1` [O-0062, 1-(7-(difluoro(6-(trifluoromethyl)pyridin-3-yl)methyl)-3,4-dihydroisoquinolin-2(1H)-yl)-3-((trifluoromethyl)sulfonyl)propan-1-one], the IC50 (Homo sapiens) lay within 0.001 to 10 µM.

On to `O=C(CCS(=O)(=O)C(F)(F)F)N1CCc2ccc(C(F)c3ccc(C(F)(F)F)nc3)cc2C1` (stereo not drawn) [O-0063, 1-(7-(fluoro(6-(trifluoromethyl)pyridin-3-yl)methyl)-3,4-dihydroisoquinolin-2(1H)-yl)-3-((trifluoromethyl)sulfonyl)propan-1-one], for which, under “Homo sapiens”, the IC50 fell in the range of 0.001 to 10 µM.

For the compound `CS(=O)(=O)c1nc(C(=O)N2CCc3ccc(C(=O)c4ccc(C(F)(F)F)cc4)cc3C2)c[nH]1` [O-0064, (2-(methylsulfonyl)-1H-imidazol-4-yl)(7-(4-(trifluoromethyl)benzoyl)-3,4-dihydroisoquinolin-2(1H)-yl)methanone], the IC50 (Homo sapiens) lay in the range of 0.001 to 10 µM.

On to `O=C(c1ccc(C(F)(F)F)cc1)c1ccc2c(c1)CN(C(=O)CCS(=O)(=O)C(F)(F)F)CC2` [O-0065, 1-(7-(4-(trifluoromethyl)benzoyl)-3,4-dihydroisoquinolin-2(1H)-yl)-3-((trifluoromethyl)sulfonyl)propan-1-one], for which the IC50 (Homo sapiens) is 0.001 to 10 µM.

As to `O=C(CCS(=O)(=O)C(F)(F)F)N1CCc2c(cccc2C(F)c2ccc(C(F)(F)F)nc2)C1` (stereo not drawn) [O-0066, 1-(5-{fluoro[6-(trifluoromethyl)-3-pyridyl]methyl}-1,2,3,4-tetrahydro-2-isoquinolyl)-3-(trifluoromesyl)-1-propanone], the concentration for half-maximal inhibition (IC50) was 0.001 to 10 µM.

Consider `O=C(c1ccc(C(F)(F)F)cc1)c1cccc2c1CCN(C(=O)Cc1cocn1)C2` [O-0067, 2-(oxazol-4-yl)-1-(5-(4-(trifluoromethyl)benzoyl)-3,4-dihydroisoquinolin-2(1H)-yl)ethan-1-one], for which the half-inhibitory concentration (IC50) (Homo sapiens) was in the range of 0.001 to 10 µM.

In the case of `O=C(Cc1c[nH]cn1)N1CCc2c(cccc2C(F)c2ccc(C(F)(F)F)cc2)C1` (stereo not drawn) [O-0068, 1-(5-(fluoro(4-(trifluoromethyl)phenyl)methyl)-3,4-dihydroisoquinolin-2(1H)-yl)-2-(1H-imidazol-4-yl)ethan-1-one], the IC50 (Homo sapiens) lay in the range of 0.001 to 10 µM.
